≈ marks a conversion by molar mass, not a printed value. Read-outs that look alike come from different tables or passages of the source.
Experiments:
[1] = test system: intracellular L. donovani amastigotes; test: Luminescent-based evaluation of intracellular anti-leishmanial activity in THP-1 macrophages; format: cell-based, Leishmania donovani; conditions: for IC50: THP1 macrophages, luminescence assay, 72 hours of treatment, read-out: Intracellular L. donovani amastigotes Lum IC50; for Selectivity 24h LC50 / Lum IC50: host-directed effect vs cytotoxicity
Summary of the method: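 PMA-differentiated THP-1 macrophages (150 nM, 72 h) were infected 18 h with firefly luciferase-expressing L. donovani LV82 promastigotes, then washed. Infected cells were treated with compounds at 0.1-10 μM for 72 h. Surviving intracellular amastigotes were quantified by firefly luciferase luminescence after cell lysis and 10 min substrate incubation at room temperature.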

THP-1 macrophages = test: Effect of compounds on host cell viability (MTT); format: cell-based
Summary of the method: (§1)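 Viability was read as MTT reduction: 2 h with 0.5 mg/mL, formazan dissolved in isopropanol, A560 with 670 nm background subtracted. The macrophages were PMA-differentiated THP-1 cells (150 nM, 72 h), treated 24 h at 1–50 μM or, for some compounds, 72 h at 1–300 μM.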

[2] = test system: intracellular L. donovani amastigotes; test: Image-based (Giemsa staining) evaluation of intracellular anti-leishmanial activity in bone marrow derived macrophages; format: cell-based, Leishmania donovani
Method: Bone marrow derived macrophages (BMDMs) were isolated from BALB/c mice and cultured as previously described. […] Completely differentiated BMDMs are obtained after 7 days of culture with media change every 2 days. Harvested cells were seeded onto 10 mm glass cover slips at 5 x 10^5 cells/ well of a 24 well plate in DMEM media (without LCM) and allowed to adhere overnight. […] After infection, cells were washed three times with fresh media to remove extracellular promastigotes and treated with compounds for a 72-hour incubation. BMDM cells were then washed with phosphate buffered saline, fixed with ice-cold methanol, and stained with Giemsa (5% v/v in water). The cover slips with stained cells are mounted onto glass slides and imaged on EVOS XL (100X, Thermo Fisher Scientific). Leishmania amastigotes per 100 macrophages were determined in a blinded manner.

[3] = test system: extracellular L. donovani promastigotes; test: Effect of compounds on promastigote viability (resazurin assay); format: cell-based, Leishmania donovani; conditions: for MIC50: 72-hour incubation
Method: (§2) The effect of compounds on extracellular promastigotes was evaluated using a resazurin-based assay as described previously. In short, late log phase Leishmania promastigotes were seeded in a 96 well plate at 1 x 10^5 parasites per well and treated with drugs (0.5 – 200 μM) for 72 hours at 25°C. Ten microliters of resazurin (0.02% w/v) were added to the treated parasites to achieve a final concentration of 0.002% w/v and incubated for 24 hours. Viability of the promastigotes was assessed by fluorescence (excitation 544 nm, emission 590 nm, SpectraMax M2, Molecular Devices).

[4] = test system: intracellular L. mexicana amastigotes; test: microbe, parasite or virus in culture; format: cell-based, Leishmania mexicana; conditions: Leishmania mexicana, Macrophage, bone marrow derived macrophages, Giemsa staining
Method: Bone marrow derived macrophages (BMDMs) were isolated from BALB/c mice and cultured as previously described. Briefly, bone marrow was harvested from long bones of mice and the isolated cells were seeded at a concentration of 2 x 10^6 cells/mL in petri dishes with RPMI media supplemented with 10% FBS, 1% Penn-Strep and 10% L929 conditioned media (LCM). Completely differentiated BMDMs are obtained after 7 days of culture with media change every 2 days. Harvested cells were seeded onto 10 mm glass cover slips at 5 x 10^5 cells/ well of a 24 well plate in DMEM media (without LCM) and allowed to adhere overnight. BMDM cells are then infected overnight with LV82 L. donovani or L. mexicana (NR-51210) at a multiplicity of infection of 10. After infection, cells were washed three times with fresh media to remove extracellular promastigotes and treated with compounds for a 72-hour incubation. BMDM cells were then washed with phosphate buffered saline, fixed with ice-cold methanol, and stained with Giemsa (5% v/v in water). The cover slips with stained cells are mounted onto glass slides and imaged on EVOS XL (100X, Thermo Fisher Scientific). Leishmania amastigotes per 100 macrophages were determined in a blinded manner.

[5] = test system: extracellular L. mexicana promastigotes; test: Effect of compounds on promastigote viability (resazurin assay); format: cell-based, Leishmania mexicana; conditions: Leishmania mexicana, 72-hour incubation
Method: as §2

[6] = Effect of compounds on host cell viability (MTT); format: cell-based; conditions: human
Summary of the method: as §1

[7] = test system: intracellular L. donovani in WT and Lys K/O BMDMs; test: 197 target validation: Giemsa staining in BMDMs from wild-type and lysozyme knockout mice; format: cell-based, Leishmania donovani; conditions: WT vs Lys K/O BMDMs
Description: B6.129P2-Lyz2^tm1(cre)Ifo/J mice[23] (stock #004781, herein termed ‘Lys K/O’) were obtained from Jackson Laboratory. This strain has a nuclear-localized Cre recombinase inserted into the first coding ATG of the lysozyme 2 gene (Lyz2) which eliminates endogenous Lyz2 gene function. Wildtype C57BL6/J mice (stock #000664) were obtained as a control.
Bone marrow derived macrophages (BMDMs) were isolated from both mice and cultured as described above in “Image-based Evaluation of Intracellular Anti-Leishmanial Activity”. BMDMs were seeded onto glass cover slips, infected with LV82 L. donovani at a multiplicity of infection of 1:10. Cells were washed to remove extracellular promastigotes and treated with compounds (197, amphotericin B) for a 72-hour incubation. BMDM cells were then washed with phosphate buffered saline, fixed with ice-cold methanol, and stained with Giemsa (5% v/v in water). The cover slips with stained cells are mounted onto glass slides and imaged on EVOS XL (100X, Thermo Fisher Scientific). Leishmania amastigotes per 100 macrophages were determined in a blinded manner.

[8] = THP-1 macrophages, 72-hour incubation, MTT assay, read-out: 72 hr viability of THP-1 macrophages LC50
[9] = read-out: 24 hr viability of THP-1 macrophages 24h LC50, THP-1 macrophages, 24-hour incubation, MTT assay
[10] = Giemsa staining, 72-hour incubation, read-out: Intracellular L. donovani amastigotes IC50
[11] = resazurin assay, read-out: Extracellular L. donovani promastigotes MIC50
[12] = Leishmania donovani, Macrophage, 72 h, Giemsa staining, 72-hour incubation, read-out: Intracellular L. donovani amastigotes IC50
[13] = Leishmania donovani, Macrophage, Giemsa staining (Table 3), read-out: L. donovani Intracellular amastigotes IC50
[14] = Leishmania donovani, resazurin assay (Table 3), read-out: L. donovani Extracellular promastigotes MIC50
[15] = Leishmania donovani, resazurin assay, read-out: Extracellular L. donovani promastigotes MIC50

SMILES	IC50 [1] [nM]	CC50 (THP-1 macrophages; [8]) [µM]	CC50 (THP-1 macrophages; [9]) [µM]	IC50 [2, 10] [nM]	MIC50 [3, 11] [µM]	other results
Oc1ccc(CNC2CCN(c3ccc(-n4nc(C(F)(F)F)cc4C4CCCCC4)cc3)CC2)cc1 [Compound 319]	800	7.2	6.4	3400	0.8 (≈ 0.399 µg/mL)	
O=C(Nc1ccc(-n2cc(C(F)(F)F)nc2-c2ccc(-c3ccccc3)cc2)cc1)C1CCN(Cc2ccccc2)C1 (centres unmarked) [Compound 86]	1400	8.2	21.9	600	3.2 (≈ 1.81 µg/mL)	
CC(C)(C)OC(=O)NC1CCN(c2ccc(-n3nncc3-c3ccc(C(F)(F)F)cc3)cc2)C1 (centres unmarked) [Compound 133]	900	33.9	29	1700	13.0 (≈ 6.16 µg/mL)	
CC(C)(C)C#Cc1ccc(-c2cc(C(F)(F)F)nn2-c2ccc(N3CCNCC3)cc2)cc1.Cl [Compound 44]	900	14.5	7.4	1000	1.9	
NCC(=O)Nc1ccc(-n2cc(C(F)(F)F)nc2-c2ccc(-c3ccccc3)cc2)cc1 [Compound 50]	1500	42.7	23.5	9100	14.6 (≈ 6.37 µg/mL)	
NCC(=O)Nc1ccc(-n2nc(C(F)(F)F)cc2-c2ccc3c(ccc4ccccc43)c2)cc1 [AR-12, reference compound]						IC50 [4]: 1500 nM; MIC50 [5]: 15.1 µM (≈ 6.95 µg/mL); CC50 at 24 h [6]: 13.3 µM; CC50 at 72 h [6]: 8.6 µM; IC50 [2, 12]: 2200 nM; IC50 [2, 13]: 2200 nM; MIC50 [3, 14]: 2.2 µM (≈ 1.01 µg/mL); MIC50 [3, 15]: 2.2 µM (≈ 1.01 µg/mL)
N#Cc1ccc(CNCC(=O)Nc2ccc(-n3nc(C(F)(F)F)cc3C3CCCCC3)cc2)cc1 [Compound 354]						IC50 [4]: 3500 nM; MIC50 [5]: 30.7 µM (≈ 14.8 µg/mL); IC50 ([1]; Leishmania donovani, THP-1): 500 nM; Selectivity 24h LC50 / Lum IC50 [1]: 44.9; CC50 at 24 h [6]: 22 µM; CC50 at 72 h [6]: 20.2 µM; IC50 [2, 12]: 400 nM; IC50 [2, 13]: 400 nM; MIC50 [3, 14]: 22.1 µM (≈ 10.6 µg/mL); MIC50 [3, 15]: 22.1 µM (≈ 10.6 µg/mL)
N#Cc1cccc(CN2CCC(Nc3ccc(-n4nc(C(F)(F)F)cc4-c4ccc(-c5ccc(C(F)(F)F)cc5)cc4)cc3)C2)c1 (centres unmarked) [Compound 53]						MIC50 [5]: > 200 µM; IC50 ([1]; Leishmania donovani, THP-1): 400 nM; Selectivity 24h LC50 / Lum IC50 [1]: >112.6; CC50 at 24 h [6]: > 50 µM; CC50 at 72 h [6]: > 300 µM; CC50 (THP-1 macrophages): > 300 µM; reduction in macrophage viability (THP-1 macrophages; 72hr incubation up to 300μM): Neither compound had any reduction; IC50 [2, 12]: 1100 nM; IC50 [2, 13]: < 2000 nM; MIC50 [3, 14]: > 200 µM; MIC50 [3, 15]: > 200 µM; direct effect on extracellular promastigote viability ([3]; resazurin assay, strain not named for 53, L. donovani for 197): no direct effects
Oc1ccccc1CN1CCC(Nc2ccc(-n3nc(C(F)(F)F)cc3-c3ccc(-c4ccc(C(F)(F)F)cc4)cc3)cc2)C1 (centres unmarked) [Compound 91]	1400	53.4	> 50	2400	56.3 (≈ 35.1 µg/mL)	
N[C@@H]1CCN(c2ccc(-n3nc(C(F)(F)F)cc3-c3ccc(-c4ccc(C(F)(F)F)cc4)cc3)cc2)C1 [Compound 129]	100	6.2	6.3	400	1.7 (≈ 0.878 µg/mL)	
FC(F)(F)c1ccc(-c2nc(C(F)(F)F)cn2-c2ccc(NC3CCNCC3)cc2)cc1 [Compound 408]	1500	25.1	25.4	2600	0.9 (≈ 0.409 µg/mL)	
C[C@@H]1[C@H](O)[C@@H](C)/C=C/C=C/C=C/C=C/C=C/C=C/C=C/[C@H](O[C@@H]2O[C@H](C)[C@@H](O)[C@H](N)[C@@H]2O)C[C@@H]2O[C@](O)(C[C@@H](O)C[C@@H](O)[C@H](O)CC[C@@H](O)C[C@@H](O)CC(=O)O[C@H]1C)C[C@H](O)[C@H]2C(=O)O [Amphotericin B, reference compound]						anti-leishmanial activity in Lys K/O BMDMs [7]: retained its anti-leishmanial activity

From paper doi:10.1101/2025.11.04.686469, “Discovery of Host-Directed Small Molecules with Broad Anti-Leishmanial Efficacy” (bioRxiv, 2025)
